Results published in BindingDB's records for doi:10.1021/acs.jmedchem.0c00689 (Virginia Commonwealth University, 2020).
Where a SMILES comes first, the peptide text is derived from it. The star is where a group is joined. X1 = O=C(Cc1ccc(O)cc1)*

Tests used:
[1] = Inhibition of recombinant human full-length His6-tagged NTMT1 (1 to 222 residues) expressed in Escherichia coli BL21-CodonPlus(DE3)-RIL competent cells assessed as Me2RCC1 level at 10 uM pre-incubated for 0 mins before RCC1 substrate addition and measured after 15 mins by Western blot analysis relative to control
[2] = Inhibition of recombinant human full-length His6-tagged NTMT1 (1 to 222 residues) expressed in Escherichia coli BL21-CodonPlus(DE3)-RIL competent cells assessed as Me2RCC1 level at 2 uM pre-incubated for 10 mins before RCC1 substrate addition and measured after 15 mins by Western blot analysis relative to control
[3] = Inhibition of recombinant human full-length His6-tagged NTMT1 (1 to 222 residues) expressed in Escherichia coli BL21-CodonPlus(DE3)-RIL competent cells assessed as Me3RCC1 level at 2 uM pre-incubated for 10 mins before RCC1 substrate addition and measured after 15 mins by Western blot analysis relative to control
[4] = Inhibition of recombinant human full-length His6-tagged NTMT1 (1 to 222 residues) expressed in Escherichia coli BL21-CodonPlus(DE3)-RIL competent cells assessed as Me3RCC1 level at 50 uM pre-incubated for 10 mins before RCC1 substrate addition and measured after 15 mins by Western blot analysis relative to control
[5] = Inhibition of recombinant human full-length His6-tagged NTMT1 (1 to 222 residues) expressed in Escherichia coli BL21-CodonPlus(DE3)-RIL competent cells assessed as Me2RCC1 level at 10 uM pre-incubated for 10 mins before RCC1 substrate addition and measured after 15 mins by Western blot analysis relative to control

N=C(N)NCCC[C@H](NC(=O)[C@H](CCCNC(=N)N)NC(=O)[C@H](CCCNC(=N)N)NC(=O)[C@H](CCCNC(=N)N)NC(=O)[C@H](CCCNC(=N)N)NC(=O)[C@H](CCCNC(=N)N)NC(=O)[C@H](CCCCN)NC(=O)[C@@H]1CCCN1C(=O)Cc1ccc(O)cc1)C(N)=O (X1-PKRRRRRR-NH2)
IC50 [1]: 900 nM
IC50 [2]: 100 nM
IC50 [3]: 800 nM
IC50 [4]: 100 nM
IC50 [5]: 1000 nM

N=C(N)NCCC[C@H](NC(=O)[C@H](CCCCN)NC(=O)[C@@H]1CCCN1C(=O)Cc1ccc(O)cc1)C(N)=O
IC50 [1]: 1000 nM
IC50 [2]: 100 nM
IC50 [4]: 100 nM

N=C(N)NCCC[C@H](NC(=O)[C@H](CCCNC(=N)N)NC(=O)[C@H](CCCNC(=N)N)NC(=O)[C@H](CCC(N)=O)NC(=O)[C@H](CCCNC(=N)N)NC(=O)[C@H](CCCNC(=N)N)NC(=O)[C@H](CCCCN)NC(=O)[C@H](CCCCN)NC(=O)[C@H](CCCNC(=N)N)NC(=O)CNC(=O)[C@H](CCCNC(=N)N)NC(=O)[C@H](CCCCN)NC(=O)[C@@H]1CCCN1C(=O)Cc1ccc(O)cc1)C(N)=O
IC50 [1]: 700 nM
IC50 [3]: 1000 nM
IC50 [4]: 200 nM
IC50 [5]: 1000 nM
